Data as given in US20200215025A1, “TREATMENT OF EXCITOTOXICITY” (priority 2017, published 2020).
“And” between values parts separate entries of the source, which are not always exact repeats. Equal values may be shown once. “Also recorded” adds a separate entry of the source.

Key:
rHEK293-GCaMP5g cells [1] = assay: Carbachol-induced Ca2+ store release in rHEK293-GCaMP5g cells (FlexStation 3); type: cell-based, human; details: for EC50: carbachol 100 μM in Ca2+ free solution, areas under the curve (RFU) normalised to DMSO control, read-out: EC50, inhibition of Ca2+ store release; for Block of carbachol-induced Ca2+ store release: compound 4 μM, carbachol 100 μM, Ca2+ free solution
Description: (§1) Untransfected human embryonic kidney 293 (HEK293) cells are a model for neuronal cell Ca^2+ signalling via Gq type G protein-coupled receptors (such as the metabotropic glutamate receptors). […] The current study utilised a custom-developed recombinant human embryonic kidney 293 (rHEK293) cell line stably over-expressing a genetically encoded Ca^2+ reporter (GCaMP5g—after [Akerboom J et al., 2012 Journal of Neuroscience, 32(40): 13819-13840]). This enabled imaging of the Ca^2+ store release under conditions where Carbachol (muscarinic receptor agonist)—induced Ca^2+ store release via the endogenous M3 muscarinic receptor—was delivered in a solution (in mM: NaCl 145; KCl 5.8; MgCl2 0.9; HEPES 10, NaH2PO4 0.7, d-glucose 5.6; pH 7.2-7.4, osmolarity 310-330 mOsm/L), lacking Ca^2+, to the wells containing the adherent rHEK293-GCaMP5g cells, using a FlexStation 3 multi-modal microplate reader (Molecular Devices). This paradigm, with sustained Carbachol presentation, results in extrusion of the cytosolic Ca^2+ from the cell via plasma membrane Ca^2+ pumps, alongside Ca^2+ store depletion. When Ca^2+ is then added to the media, a Ca^2+ signal is detected that reflects Ca^2+ entry into the cells via Ca^2+ entry pathways [Elliott, 2001 Cell calcium, 30, 73-93].
(§2) This study investigated the effect of Nx-1 and Nx-2 on the Ca^2+ re-entry in the rHEK293-GCaMP5g cells using the FlexStation 3 plate reader in ‘Flex Read’ configuration (485 nm excitation, 510 nm emission, 6 flashes per sample, medium detector sensitivity, 37° C., 780 sample points at 1.54 s intervals). The cells were seeded into the 96 well plates in DMEM media with 10% foetal calf serum supplement. The cells approached confluence at ˜66 hours at which stage the cells were washed with the Ca^2+-free solution, and then the drug was added in Ca^2+ free solution (80 μl) and the plate was then placed into the FlexStation plate reader (37° C.) and rested for 30 minutes prior to imaging. The Carbachol (final concentration 100 μM in Ca^2+ free solution; drug at specified concentration) was added 180 seconds after the start of the Ca^2+ imaging read. The Ca^2+ entry was triggered at 480 seconds by adding 10 μl of Carbachol in Ca^2+ solution with the drug (final concentrations: 100 uM Carbachol, Ca^2+1.3 mM; drug at specified concentration). The Ca^2+ imaging proceeded for a total duration of 20 minutes. Controls utilized DMSO carrier at corresponding dilution used with the drug at specified concentrations. Data analysis was based on the areas under the curves (RFU—relative fluorescence Units), with statistical analysis using Sigmaplot (Systat software, version 12.0) and graphics produced using Graphpad Prism (Graphpad Software, version 7.02).

mice (C57BI/6J) = assay: Photothrombotic cerebral cortex infarct model in mice; type: in vivo, mouse; details: for Infarct volume, 5 DPI carrier versus 5 DPI drug (ANOVA, Holm-Sidak): Nx-2 p=0.025, Nx-1 p=0.886
Experimental: All in vivo experiments were performed with University of New South Wales (UNSW) Sydney Animal Care and Ethics Committee approval. To undertake this randomized blinded photothrombotic study, male and female mice (C57BI/6J) aged 2-4 months (20-30 g) were anaesthetised with a 4% isoflurane induction (on O2) and fixed onto a stereotaxic frame. Anaesthesia was maintained at 1.5% isoflurane for the rest of the procedure. The animals were constantly monitored for their heart rate and oxygen saturation with their body temperature maintained at 37±1° C. (Kent Scientific Physiology Suite system). An ophthalmological ointment was applied to the eyes for corneal protection. Analgesia Temgesic (Buprenorphine; 0.15 mg/kg; 0.32 mg/ml) was administered intramuscularly, using a 27G needle. The skull was shaved over the target cerebral cortex region and a local anaesthetic Lignocaine was injected subcutaneously (27 needle; 20 mg/ml). A midline incision was made through the skin to expose the cranium and the periosteum was removed. The surface of the cranium was made lucid by applying ophthalmological gel over the surface. The fibre-optic coupled green LED (532 nm; ˜1 mW; 1 mm diameter light guide, Thorlabs, USA) was placed over the left hemisphere of cerebral cortex (3 mm rostral to lambda; 2 mm from the midline) followed by injection of photosensitising dye Rose Bengal (50 mg/kg) with a 29G needle via the tail vein. The skull was illuminated for 5 minutes to trigger the localized thrombus formation at the target region of cerebral cortex. The skin was then sutured and the isoflurane anaesthesia was discontinued, while providing 100% oxygen until the mice regained consciousness. Mice were injected with saline (intraperitoneal, 250 μl) during the recovery phase for rehydration. The mouse was maintained on the rectal probe feedback controlled heating pad in a recovery cage until ambulatory (˜20 min) and then the animal was placed back in its cage with food and water. The mice were monitored for signs of post-operative stress on a daily basis for the five day treatment period. Mice were administered with either the carrier or Nx-2 drug (100 mg/kg) via a rectal suppository, 45 minutes after the photothrombotic lesion, and then every 24 hours for a further 4 days in the conscious mouse. At 5 days post-infarct, the mice were euthanized via an intraperitoneal injection of Lethabarb (100 mg/kg; 27 G needle), following which the mice were transcardially perfused with 4% paraformaldehyde (PFA) in phosphate buffer (0.1 M, pH 7.4). The brains were dissected out and post-fixed for overnight in 4% PFA at 4° C. The brains were cryoprotected in 10% and 30% sucrose made in 0.01 M PBS solutions overnight respectively. Images of the surface infarct were captured on a dissecting microscope. Following cryoprotection, the brains were sectioned coronally (50 μm thick) and kept in 0.01 M PBS until they were imaged under the darkfield microscope. The Image J (NIH) software was used to measure the surface area of the infarct and darkfield sections enabled measurement of the cross sectional area of the infarct (Image J, NIH). Total infarct volume was quantified by summation of areas of infarct from darkfield sections integrated with thickness of the tissue. Descriptive statistics, ANOVA and t-tests were performed to detect the significance difference among the treatment groups using Sigmaplot (Systat software, version 12.0) after establishing normal distribution of the data (alpha=0.05).
The skull of the mouse (C57BI/6J strain) was exposed to enable fibre optic illumination of a region of the cerebral cortex with green light (532 nm) to trigger localized thrombus formation due to tail vein injection of the photo sensitizing dye Rose Bengal. Macroscopic representation of the photo-thrombotic infarct was assessed 5 days post injury in mice treated with carrier only or with Nx-1 drug. […]

rHEK293-GCaMP5g cells [2] = assay: Ca2+ re-entry in rHEK293-GCaMP5g cells after Ca2+ store depletion (FlexStation 3); type: cell-based, human; details: carbachol 100 μM; for EC50: Ca2+ 1.3 mM restored, areas under the curve (RFU) normalised to DMSO control, read-out: EC50, inhibition of Ca2+ re-entry; for Block of Ca2+ re-entry: compound 4 μM, 1.3 mM Ca2+ restored
Description: as §1, §2

Oc1ccc(C2=Cc3ccc(O)cc3OC2)cc1 [Nx-1] was tested, and the EC50 (rHEK293-GCaMP5g cells [1]; Homo sapiens) was roughly 1500 nM, the EC50 (rHEK293-GCaMP5g cells [1]) was roughly 2000 nM and the “Block of carbachol-induced Ca2+ store release” value (rHEK293-GCaMP5g cells [1]) was “block; also recorded: virtually blocked”. For the same compound, the “Infarct volume, 5 DPI carrier versus 5 DPI drug (ANOVA, Holm-Sidak)” value (mice (C57BI/6J); 100 mg/kg) was “not significantly different”, the infarct volume (mice (C57BI/6J); Table 5, 5 days post infarct, Nx-1 100 mg/kg, individual mice) was 11.80 mm^3 and 18.94 mm^3 and 14.16 mm^3 and 16.84 mm^3 and the infarct volume (mice (C57BI/6J); Table 7, 5 days post infarct, Nx-1 100 mg/kg, individual mice) was 11.80 mm^3 and 18.94 mm^3 and 14.16 mm^3 and 16.84 mm^3. The EC50 (rHEK293-GCaMP5g cells [2]; Homo sapiens) was roughly 1500 nM, the EC50 (rHEK293-GCaMP5g cells [2]) was roughly 2000 nM and the “Block of Ca2+ re-entry” value (rHEK293-GCaMP5g cells [2]) was “blocked”.

With COc1ccc(C2c3ccc(O)cc3OCC2c2ccc(O)cc2)cc1 (racemic) [Nx-2] the EC50 (rHEK293-GCaMP5g cells [1]) was ~600 nM and ~700 nM, the “Block of carbachol-induced Ca2+ store release” value (rHEK293-GCaMP5g cells [1]) was “Block; also recorded: virtually blocked” and the “Infarct volume, 5 DPI carrier versus 5 DPI drug (ANOVA, Holm-Sidak)” value (mice (C57BI/6J); 100 mg/kg) was “significant difference”. For the same compound, the “Surface infarct area, 5 DPI drug versus core infarct (2 HPI control)” value (mice (C57BI/6J); 100 mg/kg, p=0.064) was “not significantly different”, the “Neuroprotection, share of the penumbra expansion (surface infarct area)” value (mice (C57BI/6J); 5 DPI, 100 mg/kg, relative to 2 HPI core infarct and 5 DPI carrier) was 50% and the infarct surface area (mice (C57BI/6J); 5 days post infarct, 100 mg/kg rectal suppository 45 min after lesion then every 24 h for 4 days, individual mice) was 6.56 mm^2 (2×) and 8.99 mm^2 and 8.19 mm^2 and 5.79 mm^2 and 6.70 mm^2. The infarct volume (mice (C57BI/6J); Table 3, 5 days post infarct, Nx-2 100 mg/kg rectal suppository, individual mice) was 13.29 mm^3 and 10.34 mm^3 and 14.65 mm^3 and 12.02 mm^3 and 10.51 mm^3 and 13.76 mm^3, the EC50 (rHEK293-GCaMP5g cells [2]) was ~600 nM and ~700 nM and the “Block of Ca2+ re-entry” value (rHEK293-GCaMP5g cells [2]) was “Block”.
